The target of this assay is T1, Human M4 (Homo sapiens, UniProt P08173).
T1 construct: Human or rat M4 cDNA, along with the chimeric G protein Gq,5, were transfected into Chinese hamster ovary (CHO-K1) cells; expressed in transfected cells; host or cells: CHO-K1 (M4/Gqi5/CHO)
T1 sequence (P08173 1-479): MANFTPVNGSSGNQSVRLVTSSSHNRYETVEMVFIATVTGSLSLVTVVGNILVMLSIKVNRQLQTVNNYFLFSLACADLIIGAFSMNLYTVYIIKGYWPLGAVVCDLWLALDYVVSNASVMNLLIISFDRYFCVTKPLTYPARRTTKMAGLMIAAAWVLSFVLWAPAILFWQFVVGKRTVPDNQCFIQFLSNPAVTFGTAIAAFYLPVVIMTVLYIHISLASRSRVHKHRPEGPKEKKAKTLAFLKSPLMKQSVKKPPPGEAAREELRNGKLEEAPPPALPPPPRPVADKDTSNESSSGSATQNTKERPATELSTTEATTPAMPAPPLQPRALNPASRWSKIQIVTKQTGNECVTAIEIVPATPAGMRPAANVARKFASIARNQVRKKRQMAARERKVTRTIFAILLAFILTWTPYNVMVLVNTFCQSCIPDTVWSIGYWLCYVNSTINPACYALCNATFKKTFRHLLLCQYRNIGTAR
Nature of the assay: mAChR M4 cell-based functional assay (calcium flux, decrease of EC80 acetylcholine response). As to conditions: for Human M4 Emin: % ACh maximum at 30 μM; for IC50: CHO-K1 cells with human M4 and Gqi5, EC80 acetylcholine. As to the method:
Human or rat M4 cDNA, along with the chimeric G protein Gq,5, were transfected into Chinese hamster ovary (CHO-K1) cells purchased from the American Type Culture Collection using Lipofectamine2000. M4/Gqi5/CHO cells were grown in Ham's F-12 medium containing 10% heat-inactivated fetal bovine serum (FBS), 20 mM HEPES, 500 μg/mL G^418 sulfate, and 200 μg/mL Hygromycin B.
For high throughput measurement of agonist-evoked increases in intracellular calcium, CHO-K1 cells stably expressing muscarinic receptors were plated in growth medium lacking G418 and hygromycin at 15,000 cells/20 μL/well in Greiner 384-well black-walled, tissue culture (TC)-treated, clear-bottom plates (VWR). Cells were incubated overnight at 37° C. and 5% CO2. The next day, cells were washed using an ELX 405 (BioTek) with assay buffer; the final volume was then aspirated to 20 μL. Next, 20 μL of a 2.3 μM stock of Fluo-4/acetoxymethyl ester (Invitrogen, Carlsbad, Calif.), prepared as a 2.3 mM stock in DMSO and mixed in a 1:1 ratio with 10% (w/v) Pluronic F-127 and diluted in assay buffer, was added to the wells and the cell plates were incubated for 50 min at 37° C. and 5% CO2. Dye was removed by washing with the ELX 405 and the final volume was aspirated to 20 μL. Compound master plates were formatted in a 10 point concentration-response curve (CRC) format (1:3 dilutions) in 100% DMSO with a starting concentration of 10 or 1 mM using a BRAVO liquid handler (Agilent). Test compound CRCs were then transferred to daughter plates (240 nL) using the Echo acoustic plate reformatter (Labcyte, Sunnyvale, Calif.) and then diluted into assay buffer (40 μL) to a 2× stock using a Thermo Fisher Combi (Thermo Fisher Scientific, Waltham, Mass.).
Calcium flux was measured using the Functional Drug Screening System (FDSS) 6000 or 7000 (Hamamatsu Corporation, Tokyo, Japan) as an increase in the fluorescent static ratio. Compounds were applied to cells (20 μL, 2×) using the automated system of the FDSS at 2 seconds into the protocol and the data were collected at 1 Hz. At 143 s, 10 μL of an EC20 concentration of the muscarinic receptor agonist acetylcholine was added (5×), followed by the addition of […] of an EC80 concentration of acetylcholine at the 268 s time point (5×). Agonist activity was analyzed as a concentration-dependent increase in calcium mobilization upon compound addition. Positive allosteric modulator activity was analyzed as a concentration-dependent increase in the EC2o acetylcholine response. Antagonist activity was analyzed as a concentration-dependent decrease in the EC80 acetylcholine response; for the purposes of the tables herein, an IC50 (inhibitory concentration 50) was calculated as a concentration-dependent decrease of the response elicited by an EC80 concentration of acetylcholine. Concentration-response curves were generated using a four-parameter logistical equation in XLFit curve fitting software (IDBS, Bridgewater, N.J.) for Excel (Microsoft, Redmond, Wash.) or Prism (GraphPad Software, Inc., San Diego, Calif.) or the Dotmatics software platform (Dotmatics, Bishop's Stortford, UK).
Compounds were synthesized as described above. Activity (IC50 and Emin) was determined in the mAChR M4 cell-based functional assay as described above and the data are shown in Table 2.
(A change in cytosolic calcium serves as a functional read-out for many receptors and channels.)

In the case of `Fc1cc(F)c(F)c(-c2ccc(N[C@H]3C[C@@H]4CN(CC5CCCCO5)C[C@@H]4C3)nn2)c1` (single isomer, unassigned) [Compound 27], the “Human M4 Emin” value was 4% and the 50% inhibitory concentration (IC50) (usually the concentration that inhibits the measured activity by half) stood at 2.14 nM.
Take `Fc1cc(F)c(F)c(-c2ccc(N[C@H]3C[C@@H]4CN(Cc5ccnnc5)C[C@@H]4C3)nn2)c1` [Compound 38, (3aR,5s,6aS)-2-(pyridazin-4-ylmethyl)-N-(6-(2,3,5-trifluorophenyl)pyridazin-3-yl)octahydrocyclopenta[c]pyrrol-5-amine]: the “Human M4 Emin” value amounted to 16% and the IC50 came to 5210 nM.
In the case of `Fc1cc(F)c(F)c(-c2ccc(N[C@H]3C[C@@H]4CN(Cc5cc6n(n5)CCOC6)C[C@@H]4C3)nn2)c1` [Compound 36, (3aR,5s,6aS)-2-((6,7-dihydro-4H-pyrazolo[5,1-c][1,4]oxazin-2-yl)methyl)-N-(6-(2,3,5-trifluorophenyl)pyridazin-3-yl)octahydrocyclopenta[c]pyrrol-5-amine], the “Human M4 Emin” value is recorded as 3% and the half-inhibitory concentration (IC50) came to 2.22 nM.
For `CC1(CN2C[C@H]3C[C@H](Nc4ccc(-c5cc(F)cc(F)c5F)nn4)C[C@H]3C2)CCOCC1` [Compound 11, (3aR,5s,6aS)-2-((4-methyltetrahydro-2H-pyran-4-yl)methy)-N-(6-(2,3,5-trifluorophenyl)pyridazin-3-yl)octahydrocyclopenta[c]pyrrol-5-amine], in that order: 3% and 4.63 nM.
For `C[C@]12C[C@H](Nc3ccc(-c4cc(F)cc(F)c4F)nn3)C[C@H]1CN(CC1CCOCC1)C2` (racemic) [Compound 88, (3aR,5S,6aS)-3a-methyl-2-((tetrahydro-2H-pyran-4-yl)methyl)-N-(6-(2,3,5-trifluorophenyl)pyridazin-3-yl)octahydrocyclopenta[c]pyrrol-5-amine and (3aS,5R,6aR)-3a-methyl-2-((tetrahydro-2H-pyran-4-yl)methyl)-N-(6-(2,3,5-trifluorophenyl)pyridazin-3-yl)octahydrocyclopenta[c]pyrrol-5-amine], in that order: 17% and 1.2 nM.
As for `Fc1cc(F)c(F)c(-c2ccc(N[C@H]3C[C@@H]4CN(Cc5cc(Cl)ccn5)C[C@@H]4C3)nn2)c1` [Compound 19, (3aR,5s,6aS)-2-((4-chloropyridin-2-yl)methyl)-N-(6-(2,3,5-trifluorophenyl)pyridazin-3-yl)octahydrocyclopenta[c]pyrrol-5-amine], the “Human M4 Emin” value was 3% and the IC50 is 133 nM.
For `CC1(O)CC(CN2C[C@H]3C[C@H](Nc4ccc(-c5cc(F)cc(F)c5F)nn4)C[C@H]3C2)C1` (stereo partly shown) [Compound 52], in that order: 3% and 17 nM.
Regarding `Fc1cc(F)c(F)c(-c2ccc(N[C@H]3C[C@@H]4CN(Cc5cccc(Cl)n5)C[C@@H]4C3)nn2)c1` [Compound 20, (3aR,5s,6aS)-2-((6-chloropyridin-2-yl)methyl)-N-(6-(2,3,5-trifluorophenyl)pyridazin-3-yl)octahydrocyclopenta[c]pyrrol-5-amine], the “Human M4 Emin” value was found to be 5% and the IC50 is 111 nM.
Regarding `[2H]C([2H])(C1CCCOCC1)N1C[C@H]2C[C@H](Nc3ccc(-c4cc(F)cc(F)c4F)nn3)C[C@H]2C1` (stereo partly drawn) [Compound 78, (3aR,5s,6aS)-2-(oxepan-4-ylmethyl-d2)-N-(6-(2,3,5-trifluorophenyl)pyridazin-3-yl)octahydrocyclopenta[c]pyrrol-5-amine], the “Human M4 Emin” value worked out at 2% and the IC50 was 1.2 nM.
Take `Fc1cc(F)c(F)c(-c2ccc(N[C@H]3C[C@@H]4CN(C[C@H]5[C@@H]6COC[C@@H]65)C[C@@H]4C3)nn2)c1` [Compound 71, (3aR,5s,6aS)-2-(((1R,58,6s)-3-oxabicyclo[3.1.0]hexan-6-yl)methyl)-N-(6-(2,3,5-trifluorophenyl)pyridazin-3-yl)octahydrocyclopenta[c]pyrrol-5-amine]: the “Human M4 Emin” value is 3% and the 50% inhibitory concentration (IC50) worked out at 0.47 nM.
Regarding `[2H]C(C)(N1C[C@H]2C[C@H](Nc3ccc(-c4cc(F)cc(F)c4F)nn3)C[C@H]2C1)C1(C)CCOCC1` (stereo partly drawn) [Compound 45, (3aR,5s,6aS)-2-(1-(4-methyltetrahydro-2H-pyran-4-yl)ethyl-1-d)-N-(6-(2,3,5-trifluorophenyl)pyridazin-3-yl)octahydrocyclopenta[c]pyrrol-5-amine], the “Human M4 Emin” value stood at 1% and the half-maximal inhibitory concentration (IC50) was determined as 141 nM.
For the molecule `[2H]C([2H])(CCOC)N1C[C@H]2C[C@H](Nc3ccc(-c4cc(F)cc(F)c4F)nn3)C[C@H]2C1` [Compound 80, (3aR,5s,6aS)-2-(3-methoxypropyl-1,1-d2)-N-(6-(2,3,5-trifluorophenyl)pyridazin-3-yl)octahydrocyclopenta[c]pyrrol-5-amine], the “Human M4 Emin” value is 8% and the IC50 turned out to be 4500 nM.
Regarding `Fc1cc(F)c(F)c(-c2ccc(N[C@H]3C[C@@H]4CN(CC5CCCOCC5)C[C@@H]4C3)nn2)c1` (stereo partly drawn) [Compound 73, (3aR,5s,6aS)-2-(oxepan-4-ylmethyl)-N-(6-(2,3,5-trifluorophenyl)pyridazin-3-yl)octahydrocyclopenta[c]pyrrol-5-amine], the “Human M4 Emin” value was determined as 3% and the IC50 was 0.82 nM.
As to `COc1cccc(CN2C[C@H]3C[C@H](Nc4ccc(-c5cc(F)cc(F)c5F)nn4)C[C@H]3C2)n1` [Compound 17, (3aR,5s,6aS)-2-((6-methoxypyridin-2-yl)methyl)-N-(6-(2,3,5-trifluorophenyl)pyridazin-3-yl)octahydrocyclopenta[c]pyrrol-5-amine], the “Human M4 Emin” value was determined as 2% and the IC50 is 57.1 nM.
As for `[2H]C([2H])(N1C[C@H]2C[C@H](Nc3ccc(-c4cc(F)cc(F)c4F)nn3)C[C@H]2C1)C1(OC)CCCOC1` (stereo partly drawn) [Compound 48, (3aR,5s,6aS)-2-((3-methoxytetrahydro-2H-pyran-3-yl)methyl-d2)-N-(6-(2,3,5-trifluorophenyl)pyridazin-3-yl)octahydrocyclopenta[c]pyrrol-5-amine], the “Human M4 Emin” value is reported as 2% and the IC50 worked out at 184 nM.
Regarding `[2H]C([2H])(N1C[C@H]2C[C@H](Nc3ccc(-c4cc(F)cc(F)c4F)nn3)C[C@H]2C1)C1(C)CCOCC1` [Compound 14, (3aR,5s,6aS)-2-((4-methyltetrahydro-2H-pyran-4-yl)methyl-d2)-N-(6-(2,3,5-trifluorophenyl)pyridazin-3-yl)octahydrocyclopenta[c]pyrrol-5-amine], the “Human M4 Emin” value is given as 2% and the half-inhibitory concentration (IC50) stood at 6.13 nM.
With `CC(C)C(O)CN1C[C@H]2C[C@H](Nc3ccc(-c4cc(F)cc(F)c4F)nn3)C[C@H]2C1` (stereo partly drawn) [Compound 64, 3-methyl-1-((3aR,5s,6aS)-5-((6-(2,3,5-trifluorophenyl)pyridazin-3-yl)amino)hexahydrocyclopenta[c]pyrrol-2(1H)-yl)butan-2-ol], the “Human M4 Emin” value is reported as 5% and the IC50 was determined as 7.3 nM.
